Assay results as given in publication PMC9475448, “What a difference a methylene makes: replacing Glu with Asp or Aad in the Lys-urea-Glu pharmacophore of PSMA-targeting radioligands to reduce kidney and salivary gland uptake” (Theranostics, 2022).
“And” between values parts separate entries of the source, which are not always exact repeats. Equal values may be shown once.

System: LNCaP tumor-bearing mice
Assay: Ex vivo biodistribution of 68Ga-labeled ligands in LNCaP tumor-bearing NSG mice
[1] = 1 h post-injection, listed as [68Ga]Ga-HTK03189B
[2] = 1 h blocked, co-injected with DCFPyL (0.5 mg)
[3] = 1 h post-injection, listed as [68Ga]Ga-HTK03149
[4] = co-injection of DCFPyL (0.5 mg), 1 h post-injection
[5] = 1 h post-injection, listed as [68Ga]Ga-HTK03161

## O=C([O-])CN1CCN(CC(=O)[O-])CCN(CC(=O)NCC2CCC(C(=O)NC(Cc3c4ccccc4cc4ccccc34)C(=O)NCCCCC(NC(=O)NC(CCCCC(=O)O)C(=O)O)C(=O)O)CC2)CCN(CC(=O)[O-])CC1.[68Ga+3] (single isomer, unassigned) [[^68Ga]Ga-HTK03189B]
1 h post-injection
  Tumor uptake: 0.67±0.15 %IA/g
[1]
  Adrenal glands uptake: 0.37 ± 0.15 %IA/g
  Blood uptake: 1.06 ± 0.25 %IA/g
  Blood:Salivary gland uptake ratio: 4.86 ± 1.16
  Bone uptake: 0.10 ± 0.02 %IA/g
  Brain uptake: 0.03 ± 0.00 %IA/g
  Fat uptake: 0.17 ± 0.10 %IA/g
  Heart uptake: 0.30 ± 0.06 %IA/g
  Intestines uptake: 0.28 ± 0.07 %IA/g
  Kidneys uptake: 2.13 ± 0.45 %IA/g
  Lacrimal glands uptake: 0.13 ± 0.04 %IA/g
  Liver uptake: 0.39 ± 0.08 %IA/g
  Lungs uptake: 0.82 ± 0.22 %IA/g
  Muscle uptake: 0.12 ± 0.03 %IA/g
  Pancreas uptake: 0.18 ± 0.05 %IA/g
  Salivary glands uptake: 0.22 ± 0.04 %IA/g
  Spleen uptake: 0.20 ± 0.05 %IA/g
  Stomach uptake: 0.11 ± 0.03 %IA/g
  Testes uptake: 0.26 ± 0.05 %IA/g
  Thyroid uptake: 0.29 ± 0.08 %IA/g
  Tumor uptake: 0.67 ± 0.15 %IA/g
  Tumor:Blood uptake ratio: 0.65 ± 0.15
  Tumor:Kidney uptake ratio: 0.32 ± 0.05
  Tumor:Muscle uptake ratio: 5.68 ± 1.12
  Tumor:Salivary gland uptake ratio: 3.08 ± 0.53

## O=C([O-])CN1CCN(CC(=O)[O-])CCN(CC(=O)NCC2CCC(C(=O)NC(Cc3c4ccccc4cc4ccccc34)C(=O)NCCCCC(NC(=O)NC(CCCC(=O)O)C(=O)O)C(=O)O)CC2)CCN(CC(=O)[O-])CC1.[68Ga+3] (stereo not shown) [[^68Ga]Ga-HTK03149]
[2]
  Adrenal glands uptake: 0.22 ± 0.03 %IA/g
  Blood uptake: 0.67 ± 0.04 %IA/g
  Blood:Salivary gland uptake ratio: 4.80 ± 0.54
  Bone uptake: 0.07 ± 0.01 %IA/g
  Brain uptake: 0.02 ± 0.00 %IA/g
  Fat uptake: 0.08 ± 0.01 %IA/g
  Heart uptake: 0.19 ± 0.01 %IA/g
  Intestines uptake: 0.21 ± 0.04 %IA/g
  Kidneys uptake: 1.93 ± 0.39 %IA/g
  Lacrimal glands uptake: 0.14 ± 0.08 %IA/g
  Liver uptake: 0.22 ± 0.03 %IA/g
  Lungs uptake: 0.49 ± 0.03 %IA/g
  Muscle uptake: 0.08 ± 0.01 %IA/g
  Pancreas uptake: 0.12 ± 0.01 %IA/g
  Salivary glands uptake: 0.14 ± 0.01 %IA/g
  Spleen uptake: 0.15 ± 0.04 %IA/g
  Stomach uptake: 0.04 ± 0.00 %IA/g
  Testes uptake: 0.19 ± 0.02 %IA/g
  Thyroid uptake: 0.18 ± 0.01 %IA/g
  Tumor uptake: 0.77 ± 0.06 %IA/g
  Tumor:Blood uptake ratio: 1.16 ± 0.13
  Tumor:Kidney uptake ratio: 0.41 ± 0.09
  Tumor:Muscle uptake ratio: 7.18 ± 3.58
  Tumor:Salivary gland uptake ratio: 5.53 ± 0.39
1 h post-injection
  Adrenal glands uptake: 0.33 ± 0.11 %IA/g
  Blood uptake: 0.70 ± 0.17 %IA/g
  Blood:Salivary gland uptake ratio: 3.21±0.64
  Bone uptake: 0.11 ± 0.04 %IA/g
  Brain uptake: 0.02 ± 0.00 %IA/g
  Fat uptake: 0.17 ± 0.15 %IA/g
  Heart uptake: 0.21 ± 0.03 %IA/g
  Intestines uptake: 0.24 ± 0.05 %IA/g
  Kidneys uptake: 4.15±1.46 %IA/g
  Lacrimal glands uptake: 0.15 ± 0.09 %IA/g
  Liver uptake: 0.25 ± 0.06 %IA/g
  Lungs uptake: 0.53 ± 0.09 %IA/g
  Muscle uptake: 0.11 ± 0.04 %IA/g
  Pancreas uptake: 0.13 ± 0.02 %IA/g
  Salivary glands uptake: 0.22±0.06 %IA/g
  Spleen uptake: 0.27 ± 0.05 %IA/g
  Stomach uptake: 0.07 ± 0.01 %IA/g
  Testes uptake: 0.23 ± 0.13 %IA/g
  Thyroid uptake: 0.20 ± 0.05 %IA/g
  Tumor uptake: 19.1±6.37 %IA/g
  Tumor:Blood uptake ratio: 29.5±15.8
  Tumor:Kidney uptake ratio: 5.44±3.88 and > 5.0
  Tumor:Muscle uptake ratio: 185±79.6
  Tumor:Salivary gland uptake ratio: 97.3±59.2
[3]
  Kidneys uptake: 4.15 ± 1.46 %IA/g
  Salivary glands uptake: 0.22 ± 0.06 %IA/g
  Tumor uptake: 19.1 ± 6.37 %IA/g
[4]
  Reduction of average uptake in LNCaP tumor xenografts by blocking: 96%
  Reduction of average uptake in kidneys by blocking: 53%
  Reduction of average uptake in salivary glands by blocking: 36%

## O=C([O-])CN1CCN(CC(=O)[O-])CCN(CC(=O)NCC2CCC(C(=O)NC(Cc3c4ccccc4cc4ccccc34)C(=O)NCCCCC(NC(=O)NC(CC(=O)O)C(=O)O)C(=O)O)CC2)CCN(CC(=O)[O-])CC1.[68Ga+3] (stereo not shown) [[^68Ga]Ga-HTK03161]
1 h post-injection
  Adrenal glands uptake: 0.41 ± 0.07 %IA/g
  Blood uptake: 1.13 ± 0.19 %IA/g
  Blood:Salivary gland uptake ratio: 5.08±0.62
  Bone uptake: 0.11 ± 0.02 %IA/g
  Brain uptake: 0.02 ± 0.00 %IA/g
  Fat uptake: 0.15 ± 0.04 %IA/g
  Heart uptake: 0.32 ± 0.05 %IA/g
  Intestines uptake: 0.31 ± 0.09 %IA/g
  Kidneys uptake: 4.41±1.26 %IA/g
  Lacrimal glands uptake: 0.12 ± 0.06 %IA/g
  Liver uptake: 0.28 ± 0.05 %IA/g
  Lungs uptake: 0.75 ± 0.13 %IA/g
  Muscle uptake: 0.15 ± 0.04 %IA/g
  Pancreas uptake: 0.18 ± 0.03 %IA/g
  Salivary glands uptake: 0.23±0.05 %IA/g
  Spleen uptake: 0.27 ± 0.06 %IA/g
  Stomach uptake: 0.10 ± 0.04 %IA/g
  Testes uptake: 0.54 ± 0.51 %IA/g
  Thyroid uptake: 0.29 ± 0.05 %IA/g
  Tumor uptake: 12.7±1.91 %IA/g
  Tumor:Blood uptake ratio: 11.4 ± 1.73
  Tumor:Kidney uptake ratio: 3.03 ± 0.84
  Tumor:Muscle uptake ratio: 89.4 ± 36.1
  Tumor:Salivary gland uptake ratio: 57.2 ± 7.11
[5]
  Kidneys uptake: 4.41 ± 1.26 %IA/g
  Salivary glands uptake: 0.23 ± 0.05 %IA/g
  Tumor uptake: 12.7 ± 1.91 %IA/g
